This note sets out measurements from patent publication US6960575B2, “Thiazine derivatives” (Santen Pharmaceutical Co., Ltd., priority 1999, dated 2005).

System in one series: not given
Test: not given
Conditions: not given
As usually defined, the melting point is the temperature of the solid-liquid transition. The compound `CC(C)[C@@H]1C(=O)N(CC(=O)N[C@@H](Cc2ccccc2)C(=O)C2=NC(C)(C)CO2)C(c2ccccc2)=CN1C(=O)c1ccc[n+](CC(N)=O)c1.[Br-]` had a melting point of 110 °C.

With `CC(C)[C@@H]1C(=O)N(CC(=O)N[C@@H](Cc2ccccc2)C(=O)C2=NC(C)(C)CO2)C(c2ccccc2)=CN1C(=O)c1ccc[n+](Cc2ccccc2)c1.[Br-]` [Compound No. 21-3, 1-Benzyl-3-[(2R)-4-{(1S)-1-benzyl-2-(4,4-dimethyl-4,5-dihydro-1,3-oxazol-2-yl)-2-oxoethylcarbamoylmethyl}-2-isopropyl-3-oxo-5-phenyl-1,2,3,4-tetrahydro-1-pyrazinylcarbonyl]pyridinium bromide], the melting point fell in the range of 135 to 150 °C.

`CC(C)[C@@H]1C(=O)N(CC(=O)N[C@@H](Cc2ccccc2)C(=O)C2=NC(C)(C)CO2)C(c2ccccc2)=CN1C(=O)c1cc[n+](CC(N)=O)cc1.[I-]` [Compound No. 21-12, 4-{(2R)-4-[(1S)-1-Benzyl-2-(4,4-dimethyl-4,5-dihydro-1,3-oxazol-2-yl)-2-oxoethylcarbamoylmethyl]-2-isopropyl-3-oxo-5-phenyl-1,2,3,4-tetrahydro-1-pyrazinylcarbonyl}-1-(carbamoylmethyl)pyridinium iodide] had a melting point of 78 to 85 °C.

`CC(C)[C@@H]1C(=O)N(CC(=O)N[C@@H](Cc2ccccc2)C(=O)C2=NCC(C)(C)S2)C(c2ccccc2)=CN1C(=O)c1ccncc1` [Compound No. 10-10, (2S)-1-(5,5-Dimethyl-4,5-dihydro-1,3-thiazol-2-yl)-2-{(3R)-3-isopropyl-2-oxo-6-phenyl-4-(4-pyridylcarbonyl)-1,2,3,4-tetrahydropyrazin-1-yl}methylcarbonylamino-1-oxo-3-phenylpropane] came in with a melting point of 100 to 125 °C.

For another series, the target named is T1, chymase extracted from a dog cardiac tissue (Canis lupus familiaris, UniProt P21842).
T1 construct: The obtained supernatant is used as a chymase enzyme solution; from tissue; host or cells: beagle heart, left ventricle (2.0 M KCl / 1% Triton X-100 extract)
T1 sequence (P21842 22-249): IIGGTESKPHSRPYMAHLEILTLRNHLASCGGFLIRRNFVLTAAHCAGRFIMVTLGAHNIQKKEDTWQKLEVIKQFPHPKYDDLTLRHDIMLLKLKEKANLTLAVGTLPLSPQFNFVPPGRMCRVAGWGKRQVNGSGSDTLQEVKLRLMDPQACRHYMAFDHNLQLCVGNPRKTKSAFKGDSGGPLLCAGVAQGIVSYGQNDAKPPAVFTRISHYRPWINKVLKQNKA
Briefly: Chymase inhibitory effect (liberation of His-Leu from angiotensin I, fluorescence). The series is classed as biochemical. To be noted: substrate angiotensin I; 37° C., one hour; pH 8 reaction buffer; read-out: IC50 (concentration required to inhibit the chymase enzymatic activity by 50%). An excerpt:
Chymase (enzyme) causes angiotensin I (substrate) to liberate a dipeptide (His-Leu) by the enzyme reaction with the substrate. It was reported that an enzymatic activity of chymase can be measured by measuring fluorescence intensity of the resulting peptide (Biochem. Biophys. Res. Com., 149 (3) 1186 (1987)). Since drugs having chymase inhibitory activities suppress this liberation of the dipeptide, the chymase inhibitory activities of the drugs can be measured by measuring fluorescence intensity. In the present pharmacological test, chymase inhibitory effects of the present compounds were studied by using chymase extracted from a dog cardiac tissue (J. Biol. Chem., 265 (36), 22348 (1990)).
• 1. A beagle is killed by drawing blood under Nembutal anesthesia, a heart is enucleated, and left ventricle is separated. • 2. This left ventricle is finely minced, and the tissue weight is measured. • 3. A 0.02 M Tris-HCl buffer (pH 7.4) is added to the tissue in an amount of 10 times by volume the tissue weight. The obtained mixture is homogenized at 8,000 rpm for 20 seconds and then centrifuged at 4° C. and 21,000 rpm for 30 minutes, and the resulting supernatant is discarded. • 4. The same procedure as the above 3 is repeated twice for the residue. Then, a 0.02 M Tris-HCl buffer (pH 7.4) containing 1% Triton X-100 and 0.01 M potassium chloride is added to the residue in an amount of 10 times by volume the amount of the residue. The obtained mixture is homogenized at 8,000 rpm for 20 seconds, then incubated at 4° C. for one hour and centrifuged at 21,000 rpm for 30 minutes, and the supernatant is discarded. • 5. A 0.02 M Tris-HCl buffer (pH 7.4) containing 1% Triton X-100 and 0.5 M potassium chloride is added to the residue in an amount of 10 times by volume the amount of the residue. The obtained mixture is homogenized at 8,000 rpm for 20 seconds, then incubated at 4° C. for one hour and centrifuged at 21,000 rpm for 30 minutes, and the supernatant is discarded. • 6. A 0.02 M Tris-HCl buffer (pH 7.4) containing 1% Triton X-100 and 2.0 M potassium chloride is added to the residue in an amount of 10 times the amount of the residue. The obtained mixture is homogenized at 8,000 rpm for 20 seconds, then incubated at 4° C. for one hour and centrifuged at 21,000 rpm for 30 minutes. The obtained supernatant is used as a chymase enzyme solution. [2. Preparation of Reaction Buffer]
Tris-HCl and disodium ethylenediaminetetraacetate are dissolved in water so that their concentrations are 92.3 mM and 12.0 mM respectively to prepare a reaction buffer adjusted to pH 8.
Angiotensin I is dissolved in water to prepare a 1.54 mM substrate solution.
A test compound is dissolved in dimethyl sulfoxide to prepare 3.0×10^−3M, 3.0×10^−4 M, 3.0×10^−5 M and 3.0×10^−6 M test compound solutions.
• 1. The reaction buffer (32.5 μl), the substrate solution (75.0 μl), the chymase enzyme solution (37.5 μl) and the test compound solution (5 μl) are mixed. • 2. The obtained mixture is incubated at 37° C. for one hour. • 3. To the mixture is added 15% trichloroacetic acid (225 μl), and the whole is centrifuged at 4° C. and 14,000 rpm for five minutes. • 4. The supernatant is taken out. A 1% orthophthalaldehyde/methanol solution (165 μl) is added to 300 μl of this supernatant, and the whole is stirred and allowed to stand at room temperature for 10 minutes. • 5. 1.5 M Hydrochloric acid (300 μl) is added to the resulting mixture, and the whole is stirred and centrifuged at 4° C. and 14,000 rpm for two minutes. • 6. The supernatant is taken out and irradiated with light having a wavelength of 340 nm, and fluorescence intensity is measured at a wavelength of 455 nm.
The blank of this test is defined as follows. […]
`CC(=O)N1C=C(c2ccccc2)N(CC(=O)N[C@@H](Cc2ccccc2)C(=O)C2=NCCS2)C(=O)C1C(C)C` (mixture of isomers) [Compound No. 2-48, (2S)-2-{(3RS)-4-Acetyl-3-isopropyl-2-oxo-6-phenyl-1,2,3,4-tetrahydropyrazin-1-yl}methylcarbonylamino-1-(4,5-dihydro-1,3-thiazol-2-yl)-1-oxo-3-phenylpropane]: the IC50 is 1200 nM.

With `CC(C)OC(=O)C(=O)[C@H](Cc1ccccc1)NC(=O)CN1C(=O)[C@@H](C(C)C)N(C(=O)c2ccccc2)C=C1c1ccccc1` [Compound No. 2-22, Isopropyl (3S)-3-{(3R)-4-benzoyl-3-isopropyl-2-oxo-6-phenyl-1,2,3,4-tetrahydropyrazin-1-yl}methylcarbonylamino-2-oxo-4-phenylbutyrate], the IC50 was found to be 200 nM.

On to `CC(=O)N1C=C(c2ccccc2)N(CC(=O)N[C@@H](Cc2ccccc2)C(=O)C2=NCCO2)C(=O)C1C(C)C` (mixture of isomers) [Compound No. 2-47, (2S)-2-{(3RS)-4-Acetyl-3-isopropyl-2-oxo-6-phenyl-1,2,3,4-tetrahydropyrazin-1-yl}methylcarbonylamino-1-(4,5-dihydro-1,3-oxazol-2-yl)-1-oxo-3-phenylpropane], for which the IC50 worked out at 500 nM.

For `CC(=O)N1C=C(c2ccccc2)N(CC(=O)NC(Cc2ccccc2)C(=O)C(F)(F)F)C(=O)C1C(C)C` (racemic) [Compound No. 4-1, (3RS)-3-{(3RS)-4-Acetyl-3-isopropyl-2-oxo-6-phenyl-1,2,3,4-tetrahydropyrazin-1-yl}methylcarbonylamino-2-oxo-4-phenyl-1,1,1-trifluorobutane], the IC50 came out at 1500 nM.

On to `CC(=O)N1C=C(c2ccccc2)N(CC(=O)N[C@@H](Cc2ccccc2)C(=O)c2nc3ccccc3s2)C(=O)C1C(C)C` (mixture of isomers) [Compound No. 2-46, (2S)-2-{(3RS)-4-Acetyl-3-isopropyl-2-oxo-6-phenyl-1,2,3,4-tetrahydropyrazin-1-yl}methylcarbonylamino-1-(1,3-benzothiazol-2-yl)-1-oxo-3-phenylpropane], for which the IC50 amounted to 3800 nM.

As to `COc1ccc(C2=CSC(C(C)C)C(=O)N2CC(=O)N[C@@H](Cc2ccccc2)C(=O)C(=O)OC(C)C)cc1` (mixture of isomers) [Compound No. 2-65, Isopropyl (3S)-3-{(2RS)-2-isopropyl-5-(4-methoxyphenyl)-3-oxo-3,4-dihydro-2H-1,4-thiazin-4-yl}methylcarbonylamino-2-oxo-4-phenylbutyrate], the IC50 came to 280 nM.

On to `CC(C)OC(=O)C(=O)[C@H](Cc1ccccc1)NC(=O)CN1C(=O)C(C(C)C)N(S(=O)(=O)c2ccccc2)C=C1c1ccccc1` (mixture of isomers) [Compound No. 2-34, Isopropyl (3S)-3-{(3RS)-4-benzenesulfonyl-3-isopropyl-2-oxo-6-phenyl-1,2,3,4-tetrahydropyrazin-1-yl}methylcarbonylamino-2-oxo-4-phenylbutyrate], for which the IC50 amounted to 250 nM.

`CC(C)C1C(=O)N(CC(=O)N[C@@H](Cc2ccccc2)C(=O)C2=NC(C)(C)CO2)C(c2ccccc2)=CN1C(=O)c1ccccc1` (mixture of isomers) [Compound No. 10-7, (2S)-2-{(3RS)-4-Benzoyl-3-isopropyl-2-oxo-6-phenyl-1,2,3,4-tetrahydropyrazin-1-yl}methylcarbonylamino-1-(4,4-dimethyl-4,5-dihydro-1,3-oxazol-2-yl)-1-oxo-3-phenylpropane]: the IC50 stood at 370 nM.

Regarding `CC(C)OC(=O)C(=O)[C@H](Cc1ccccc1)NC(=O)CN1C(=O)C(C(C)C)N(C(=O)c2ccncc2)C=C1c1ccccc1` (mixture of isomers) [Compound No. 2-32, Isopropyl (3S)-3-{(3RS)-3-isopropyl-2-oxo-6-phenyl-4-(4-pyridylcarbonyl)-1,2,3,4-tetrahydropyrazin-1-yl}methylcarbonylamino-2-oxo-4-phenylbutyrate], the IC50 was found to be 360 nM.

For the compound `CC(C)OC(=O)C(=O)[C@H](Cc1ccccc1)NC(=O)CN1C(=O)C(C(C)C)N(C(=O)c2cccnc2)C=C1c1ccccc1` (mixture of isomers) [Compound No. 2-31, Isopropyl (3S)-3-{(3RS)-3-isopropyl-2-oxo-6-phenyl-4-(3-pyridylcarbonyl)-1,2,3,4-tetrahydropyrazin-1-yl}methylcarbonylamino-2-oxo-4-phenylbutyrate], the IC50 turned out to be 210 nM.

On to `CC(C)OC(=O)C(=O)[C@H](Cc1ccccc1)NC(=O)CN1C(=O)C(C(C)C)SC=C1c1ccccc1` (mixture of isomers) [Compound No. 2-63, Isopropyl (3S)-3-{(2RS)-2-isopropyl-3-oxo-5-phenyl-3,4-dihydro-2H-1,4-thiazin-4-yl}methylcarbonylamino-2-oxo-4-phenylbutyrate], for which the IC50 came out at 320 nM.
